Results on 21 compounds are retold here after patent publication US4788206A, “Pentadieneamides” (Hoffmann-La Roche Inc., priority 1987, dated 1988).

Structures are written as SMILES. Read-outs that look alike come from different tables or passages of the source. Some results are limits rather than exact numbers.

Assay [1] concerns the target T1, PAF Binding, dog platelets (Canis lupus familiaris, UniProt A0A8I3NSH0).
T1 construct: Washed platelets were prepared by resuspending the platelet pellet once with PBS containing 1 mM EDTA; from tissue; host or cells: washed platelets from dog blood
T1 sequence (A0A8I3NSH0 1-343): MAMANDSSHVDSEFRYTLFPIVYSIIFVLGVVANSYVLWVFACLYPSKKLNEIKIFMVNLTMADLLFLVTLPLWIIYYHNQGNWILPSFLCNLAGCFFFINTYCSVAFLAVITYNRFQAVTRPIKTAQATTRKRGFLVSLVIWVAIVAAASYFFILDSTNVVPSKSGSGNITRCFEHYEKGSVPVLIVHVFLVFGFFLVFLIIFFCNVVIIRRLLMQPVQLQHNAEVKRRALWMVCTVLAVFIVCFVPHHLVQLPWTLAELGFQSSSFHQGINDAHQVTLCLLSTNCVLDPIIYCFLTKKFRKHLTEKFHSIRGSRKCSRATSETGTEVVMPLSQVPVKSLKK
Kind of assay: PAF Binding Assay (inhibition of 3H-PAF binding to washed dog platelets). The protocol: The binding assay was done in 400 μl polyethylene microcentrifuge tubes (Beckman) containing 50 μl of an oil mixture of 2 parts Siliconol AR200 (Serva): 1 part Silicone Fluid (Arthur H. Thomas). Buffer, standards, or analogs (150 μl total volume) were added to the tubes. Radiolabelled ^3 H-PAF (50 μl) was then added to the tubes. The reaction was started by the addition of 50 μl of dog platelets (2×10^7 platelets). The tubes were capped, inverted several times to mix, and incubated for 10 minutes at room temperature. The platelets were separated from the incubation mixture by centrifuging 1 minute in a Beckman Microfuge B centrifuge. The tip of the microfuge tube was cut off, and the platelets were washed out of the tip with 200 μl of 50% methanol (Burdick and Jackson). Aquasol (NEN, 10 ml) was added and the radioactivity in the samples was determined using an LS 8100 Beckman liquid scintillation counter linked to a Techtran tape recorder. Data was processed through an in-house computer system. Alternatively, radioactivity was determined using a Searle Mark III liquid scintillation counter linked to a Iso-Data microprocessor.
(b) Preparation of Platelets
Blood was collected from anesthesized or unanesthesized dogs into 50 ml plastic centrifuge tubes containing 3.8% sodium citrate as the anticoagulant (1 volume of citrate/9 volumes of blood). The red cells were removed by centrifugation for 15 minutes at 600 rpm (100-125 g) at room temperature. An aliquot of the supernatant platelet rich plasma (PRP) was saved for cell counting and the remainder was acidified to PH 6.5 with 0.15M citric acid. The platelet pellet was obtained after a 10 minute centrifugation at 2000 rpm (1000 g) at room temperature. Washed platelets were prepared by resuspending the platelet pellet once with PBS containing 1 mM EDTA, centrifuging as noted, and then resuspending the platelets in 0.1% BSA-PBS. An aliquot of the washed platelets was counted. Platelets used for binding assays were diluted to 2×10^7 platelets/assay tube (4×10^8 platelets/ml). Platelet counting was done using a Royco Cell-Crit 921.

In assay [2] the test system is PAF-Induced Bronchoconstriction. Kind of assay: PAF Induced Bronchoconstriction Assay. Type of assay: in vivo, guinea pig. The following applies: for inhibition in vivo at 50 mg/kg: Cavia porcellus, po, 2-hour pretreatment, read-out: Percent Inhib. of PAF-Induced Bronchoconstriction, 50 mg/Kg p.o.; for Percent Inhib. of PAF-Induced Bronchoconstriction, mg/Kg i.v.: i.v. (dose not given), 1 minute pretreatment, PAF 1.0 μg/kg i.v. Summed up:
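Male Hartley guinea pigs, urethane-anesthetized (2 g/kg i.p.), ventilated, with succinylcholine 1.2 mg/kg i.v. and propranolol 0.1 mg/kg i.v. pretreatment. Compound given i.v. 1 min or by oral gavage 2 h before i.v. PAF challenge at 1.0 μg/kg. Peak tracheal pressure rise over baseline compared with control mean gives % inhibition.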

Where [3] appears, read: dog platelets, 3H-PAF, 10 minutes at room temperature, read-out: Inhib of PAF Binding IC50.

Turning to `CC[C@H](CCCc1cccnc1)NC(=O)/C=C/C=C(c1ccc(OC)cc1)c1ccc(OC)cc1` [[R-(E)]-N-[1-ethyl-4-(3-pyridinyl)butyl]-5,5-bis(4-methoxyphenyl)-2,4-pentadienamide], the half-inhibitory concentration (IC50) (commonly the concentration that inhibits the measured activity by half) in assay [1] (setting [3]) stood at 120 nM. In assay [2] (50 mg/Kg p.o., (8 hr)), the “Percent Inhib. of PAF-Induced Bronchoconstriction, 50 mg/Kg p.o. (8 hr)” value is recorded as 85 ± 12%. Also, the inhibition in vivo at 50 mg/kg in assay [2] (50 mg/Kg p.o.) came to 99 ± 1%. In assay [2], the “Percent Inhib. of PAF-Induced Bronchoconstriction, mg/Kg i.v.” value is on record as 99 ± 0.4%.

Consider `CCCCCCCC/C(=C\C=C\C(=O)N[C@H](C)CCCc1cccnc1)c1ccc(OC)cc1` [[R-(E,E)]-5-(4-methoxyphenyl)-N-[1-methyl-4-(3-pyridinyl)butyl]-2,4-tridecadienamide], for which, in assay [1] (setting [3]), the IC50 came out at 5 nM. Moreover, in assay [2] (50 mg/Kg p.o.), the inhibition in vivo at 50 mg/kg is 84 ± 8%. Further, the “Percent Inhib. of PAF-Induced Bronchoconstriction, mg/Kg i.v.” value in assay [2] amounted to 98 ± 1%.

With `CCC(CCCc1cccnc1)NC(=O)/C=C/C=C(c1ccc(OC)cc1)c1ccc(OC)cc1` (racemic) [[R,S-(E)]-N-1-ethyl-4-(3-pyridinyl)butyl]-5,5-bis(4-methoxyphenyl)-2,4-pentadienamide], the IC50 in assay [1] (setting [3]) came out at 90 nM. Further, the inhibition in vivo at 50 mg/kg in assay [2] (50 mg/Kg p.o.) is 99 ± 1%. Besides, the “Percent Inhib. of PAF-Induced Bronchoconstriction, mg/Kg i.v.” value in assay [2] was found to be 86 ± 8%.

As to `COc1ccc(/C(=C/C=C/C(=O)N[C@H](C)CCCc2cccnc2)c2cccs2)cc1` [[R-(2E,4Z)]-5-(4-methoxyphenyl)-N-[1-methyl-4-(3-pyridinyl)butyl]-5-(2-thienyl)-2,4-pentadienamide], the IC50 in assay [1] (setting [3]) is 16 nM. The “Percent Inhib. of PAF-Induced Bronchoconstriction, 50 mg/Kg p.o. (6 hr)” value in assay [2] (50 mg/Kg p.o., (6 hr)) stood at 27 ± 6%. The inhibition in vivo at 50 mg/kg in assay [2] (50 mg/Kg p.o.) was 96 ± 2%. The “Percent Inhib. of PAF-Induced Bronchoconstriction, mg/Kg i.v.” value in assay [2] was found to be 97 ± 1%.

With `COc1ccc(/C(=C\C=C\C(=O)N[C@H](C)CCCc2cccnc2)C2CC2)cc1` [[R-(2E,4Z)]-5-cyclopropyl-5-(4-methoxyphenyl)-N-1-methyl-4-(3-pyridinyl)butyl]-2,4-pentadienamide], the IC50 in assay [1] (setting [3]) stood at 70 nM. In assay [2] (50 mg/Kg p.o.), the inhibition in vivo at 50 mg/kg came out at 63 ± 19%. The “Percent Inhib. of PAF-Induced Bronchoconstriction, mg/Kg i.v.” value in assay [2] amounted to 85 ± 4%.

For the compound `CCCCCC(=C/C=C/C(=O)N[C@H](C)CCCc1cccnc1)CCCCC` [[R-(E)]-N-[1-methyl-4-(3-pyridinyl)butyl]-5-pentyl-2,4-decadienamide], the IC50 in assay [1] (setting [3]) came out at 100 nM. Also, the inhibition in vivo at 50 mg/kg in assay [2] (50 mg/Kg p.o.) worked out at 4 ± 4%. Moreover, in assay [2], the “Percent Inhib. of PAF-Induced Bronchoconstriction, mg/Kg i.v.” value turned out to be 78 ± 7%.

Consider `CCCCC/C(=C/C=C/C(=O)N[C@H](C)CCCc1cccnc1)c1cccc(F)c1` [[R-(2E,4Z)]-5-(3-fluorophenyl)-N-[1-methyl-4-(3-pyridinyl)butyl]-2,4-decadienamide], for which the IC50 in assay [1] (setting [3]) was determined as 105 nM. Besides, in assay [2], the “Percent Inhib. of PAF-Induced Bronchoconstriction, mg/Kg i.v.” value came to 93 ± 1%.

Take `CCCC(CCCc1cccnc1)NC(=O)/C=C/C=C(c1ccc(OC)cc1)c1ccc(OC)cc1` (racemic) [[R,S-(E)]-5,5-bis(4-methoxyphenyl)-N-[1-propyl-4-(3-pyridinyl)butyl]-2,4-pentadienamide]: the IC50 in assay [1] (setting [3]) was greater than 1000 nM. In addition, the “Percent Inhib. of PAF-Induced Bronchoconstriction, mg/Kg i.v.” value in assay [2] stood at 24 ± 13%.

Turning to `O=C(/C=C/C=C(c1cccc([N+](=O)[O-])c1)c1cccc([N+](=O)[O-])c1)NCCCCc1cccnc1` [(E)-5,5-bis(3-nitrophenyl)-N-[4-(3-pyridinyl)butyl)-2,4-pentadienamide], the IC50 in assay [1] stood at 115 nM. Moreover, the “Percent Inhib. of PAF-Induced Bronchoconstriction, mg/Kg i.v.” value in assay [2] is reported as 18 ± 2%.

Consider `CCCCC(CCCc1cccnc1)NC(=O)/C=C/C=C(c1ccc(OC)cc1)c1ccc(OC)cc1` (racemic) [[R,S-(E)]-N-[1-butyl-4-(3-pyridinyl)butyl]-5,5-bis(4-methoxyphenyl)-2,4-pentadienamide], for which the IC50 in assay [1] (setting [3]) is greater than 1000 nM. The “Percent Inhib. of PAF-Induced Bronchoconstriction, mg/Kg i.v.” value in assay [2] was found to be 42 ± 7%.

As to `CCCCC/C(=C\C=C\C(=O)NCCCCc1cccnc1)c1ccc(OC)cc1` [(E,E)-5-(4-methoxyphenyl)-N-[4-(3-pyridinyl)butyl]-2,4-decadienamide], the IC50 in assay [1] (setting [3]) was determined as 15 nM. Further, the inhibition in vivo at 50 mg/kg in assay [2] (50 mg/Kg p.o.) amounted to 26 ± 2%. In assay [2], the “Percent Inhib. of PAF-Induced Bronchoconstriction, mg/Kg i.v.” value came to 99 ± 1%.

In the case of `COc1ccc(/C=C/C=C/C(=O)N[C@H](C)CCCc2cccnc2)cc1` [[R-(E,E)]-5-(4-methoxyphenyl)-N-[1-methyl-4-(3-pyridinyl)butyl]-2,4-pentadienamide], in assay [1] (setting [3]), the IC50 came out at 30 nM. In addition, the “Percent Inhib. of PAF-Induced Bronchoconstriction, mg/Kg i.v.” value in assay [2] is 17 ± 13%.

For the compound `CCCCC/C(=C\C=C\C(=O)NC(C)CCCc1cccnc1C)c1ccc(OC)cc1` (racemic) [[R,S-(E,E)]-5-(4-methoxyphenyl)-N-[1-methyl-4-(2-methyl-3-pyridinyl)butyl]-2,4-decadienamide], the IC50 in assay [1] (setting [3]) is 5 nM. In addition, the “Percent Inhib. of PAF-Induced Bronchoconstriction, mg/Kg i.v.” value in assay [2] is listed as 77 ± 5%.

`CCCCC/C(=C\C=C\C(=O)N[C@@H](C)CCCc1cccnc1)c1ccc(OC)cc1` [[S-(E,E)]-5-(4-methoxyphenyl)-N-[1-methyl-4-(3-pyridinyl)butyl]-2,4-decadienamide]: the IC50 in assay [1] (setting [3]) was 120 nM. Further, the inhibition in vivo at 50 mg/kg in assay [2] (50 mg/Kg p.o.) is 25 ± 13%. In addition, the “Percent Inhib. of PAF-Induced Bronchoconstriction, mg/Kg i.v.” value in assay [2] was found to be 46 ± 16%.

Take `CCCCC/C(=C\C=C\C(=O)N[C@H](C)CCCc1cccnc1)c1cccc(F)c1` [[R-(E,E)]-5-(3-fluorophenyl)-N-[1-methyl-4-(3-pyridinyl)butyl]-2,4-decadienamide]: the IC50 in assay [1] (setting [3]) came to 30 nM. In addition, the “Percent Inhib. of PAF-Induced Bronchoconstriction, mg/Kg i.v.” value in assay [2] amounted to 93 ± 0.9%.

For `CC/C(=C\C=C\C(=O)N[C@H](C)CCCc1cccnc1)c1ccc(OC)cc1` [[R-(E,E)]-5-(4-methoxyphenyl)-N-[1-methyl-4-(3-pyridinyl)butyl]-2,4-heptadienamide], in assay [1] (setting [3]), the IC50 was determined as 30 nM. In addition, the inhibition in vivo at 50 mg/kg in assay [2] (50 mg/Kg p.o.) came to 84 ± 2%. The “Percent Inhib. of PAF-Induced Bronchoconstriction, mg/Kg i.v.” value in assay [2] turned out to be 72 ± 13%.

On to `CCC/C(=C\C=C\C(=O)N[C@H](C)CCCc1cccnc1)c1ccc(OC)cc1` [[R-(E,E)]-5-(4-methoxyphenyl)-N-[1-methyl-4-(3-pyridinyl)butyl]-2,4-octadienamide], for which the IC50 in assay [1] (setting [3]) is 50 nM. In addition, the inhibition in vivo at 50 mg/kg in assay [2] (50 mg/Kg p.o.) came to 9 ± 13%. Also, in assay [2], the “Percent Inhib. of PAF-Induced Bronchoconstriction, mg/Kg i.v.” value came to 86 ± 7%.

Turning to `CCCCCCCCCCCC/C(=C\C=C\C(=O)N[C@H](C)CCCc1cccnc1)c1ccc(OC)cc1` [[R-(E,E)]-5-(4-methoxyphenyl)-N-[1-methyl-4-(3-pyridinyl)butyl]-2,4-heptadecadienamide], in assay [1] (setting [3]), the IC50 was 45 nM. Moreover, the “Percent Inhib. of PAF-Induced Bronchoconstriction, mg/Kg i.v.” value in assay [2] came to 28 ± 2%.

As to `COc1ccc(/C(=C/C=C/C(=O)NCCCCc2cccnc2)c2cccnc2)cc1` [(2E,4Z)-5-(4-methoxyphenyl)-5-(3-pyridinyl)-N-[4-(3-pyridinyl)butyl]-2,4-pentadienamide], in assay [1] (setting [3]), the IC50 was 50 nM. For the same compound, in assay [2] (50 mg/Kg p.o.), the inhibition in vivo at 50 mg/kg was found to be 39 ± 8%. Moreover, the “Percent Inhib. of PAF-Induced Bronchoconstriction, mg/Kg i.v.” value in assay [2] turned out to be 78 ± 10%.

Consider `COc1ccc(C(=C/C=C/C(=O)NC(CCCc2cccnc2)c2ccc(Br)cc2)c2ccc(OC)cc2)cc1` (racemic) [[R,S-(E)]-N-[1-(4-bromophenyl)-4-(3-pyridinyl)butyl]-5,5-bis(4-methoxyphenyl)2.4-pentadienamide], for which the IC50 in assay [1] (setting [3]) was greater than 1000 nM. For the same compound, the “Percent Inhib. of PAF-Induced Bronchoconstriction, mg/Kg i.v.” value in assay [2] is reported as 6 ± 13%.

For `COc1ccc(/C(=C\C=C\C(=O)NCCCCc2cccnc2)c2ccccc2OC)cc1` [(E,E)-5-(2-methoxyphenyl)-5-(4-methoxyphenyl)-N-[4-(3-pyridinyl)butyl]-2,4-pentadienamide], the IC50 in assay [1] (setting [3]) came out at 45 nM. For the same compound, the inhibition in vivo at 50 mg/kg in assay [2] (50 mg/Kg p.o.) worked out at 21 ± 7%. Also, in assay [2], the “Percent Inhib. of PAF-Induced Bronchoconstriction, mg/Kg i.v.” value was determined as 80 ± 5%.
